The molecules below were run against GST-tagged-Wee1 kinase (Homo sapiens, UniProt P30291) (assay: Wee1 time-resolved fluorescence equilibrium binding assay (displacement of Oregon Green-labeled ATP-competitive kinase probe)).
Sequence of GST-tagged-Wee1 kinase (P30291 whole entry): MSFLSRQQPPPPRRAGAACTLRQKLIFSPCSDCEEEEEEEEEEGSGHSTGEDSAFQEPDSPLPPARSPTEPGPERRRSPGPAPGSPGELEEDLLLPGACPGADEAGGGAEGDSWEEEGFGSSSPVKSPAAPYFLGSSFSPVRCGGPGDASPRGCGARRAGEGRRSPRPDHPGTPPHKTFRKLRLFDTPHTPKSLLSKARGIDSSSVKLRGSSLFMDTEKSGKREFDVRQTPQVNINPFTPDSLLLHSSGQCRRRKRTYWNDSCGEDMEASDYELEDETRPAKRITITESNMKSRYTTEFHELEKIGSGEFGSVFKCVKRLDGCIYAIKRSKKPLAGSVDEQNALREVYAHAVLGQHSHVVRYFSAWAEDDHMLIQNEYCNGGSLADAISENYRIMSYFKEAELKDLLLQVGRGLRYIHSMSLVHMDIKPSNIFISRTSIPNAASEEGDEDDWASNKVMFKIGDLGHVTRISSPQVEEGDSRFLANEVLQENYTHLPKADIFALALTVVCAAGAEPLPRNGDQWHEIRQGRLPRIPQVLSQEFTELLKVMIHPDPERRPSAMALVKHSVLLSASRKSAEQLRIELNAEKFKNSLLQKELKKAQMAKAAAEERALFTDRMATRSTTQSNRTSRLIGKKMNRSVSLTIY
Method: Wee1 kinase was assayed using a time-resolved fluorescence equilibrium binding assay monitoring displacement of a rapidly reversible Oregon Green-labeled ATP-competitive kinase probe (N-(2-(2-(2-(4-(4-(5-chloro-4-(2-(1-hydroxycyclobutyl)thiazol-5-yl)-1H-pyrrolo[2,3-b]pyridin-2-yl)phenyl)piperazin-1-yl)ethoxy)ethoxy)ethyl)-2′,7′-difluoro-3′,6′-dihydroxy-3-oxo-3H-spiro[isobenzofuran-1,9′-xanthene]-5-carboxamide) by competitive Wee1 inhibitors.
With Cc1ccccc1-n1nc(-c2ccco2)c2nc(Nc3ccc4c(c3)CN(C)CC43CC3)ncc2c1=O [Example 145, 8-(2-furyl)-2-[(2′-methyl-2′,3′-dihydro-1′H-spiro[cyclopropane-1,4′-isoquinolin]-7′-yl)amino]-6-(2-methylphenyl)pyrimido[4,5-d]pyridazin-5(6H)-one] the Ki was 0.3 nM. O=c1c2cnc(Nc3ccc(N4CCN(C5CCC5)CC4)cc3)nc2c(-c2ccncc2)nn1-c1c(Cl)cccc1Cl [Example 301, 2-{[4-(4-cyclobutylpiperazin-1-yl)phenyl]amino}-6-(2,6-dichlorophenyl)-8-(pyridin-4-yl)pyrimido[4,5-d]pyridazin-5(6H)-one] gave a Ki of 2.7 nM. CN1CCN(c2ccc(Nc3ncc4c(=O)n(-c5c(Cl)cccc5Cl)nc(-c5ccsc5)c4n3)cc2)CC1 [Example 97, 6-(2,6-dichlorophenyl)-2-{[4-(4-methylpiperazin-1-yl)phenyl]amino}-8-(3-thienyl)pyrimido[4,5-d]pyridazin-5(6H)-one] gave a Ki of 0.06 nM. CN1CCN(c2ccc(Nc3ncc4c(=O)n(C)nc(C5CCCC5)c4n3)cc2)CC1 [Example 13, 8-cyclopentyl-6-methyl-2-{[4-(4-methylpiperazin-1-yl)phenyl]amino}pyrimido[4,5-d]pyridazin-5(6H)-one] was tested, and the Ki was 620 nM. C=CCn1nc(-c2ccco2)c2nc(Nc3ccc(N4CCN(C(C)C)CC4)cc3)ncc2c1=O [Example 112, 6-allyl-8-(2-furyl)-2-{[4-(4-isopropylpiperazin-1-yl)phenyl]amino}pyrimido[4,5-d]pyridazin-5(6H)-one] gave a Ki of 14 nM. COc1cc(Nc2ncc3c(=O)n(-c4ccccc4Cl)nc(-c4cccs4)c3n2)ccc1N1CCN(C(C)C)CC1 [Example 174, 6-(2-chlorophenyl)-2-{[4-(4-isopropylpiperazin-1-yl)-3-methoxyphenyl]amino}-8-(2-thienyl)pyrimido[4,5-d]pyridazin-5(6H)-one] showed a Ki of 0.1 nM. CN1CCN(c2ccc(Nc3ncc4c(=O)n(-c5c(Cl)cccc5Cl)nc(-c5ccnc(C(=O)N(C)C)c5)c4n3)cc2)CC1 [Example 248, 4-[6-(2,6-dichlorophenyl)-2-{[4-(4-methylpiperazin-1-yl)phenyl]amino}-5-oxo-5,6-dihydropyrimido[4,5-d]pyridazin-8-yl]-N,N-dimethylpyridine-2-carboxamide] gave a Ki of 0.4 nM. For CN1CCN(c2ccc(Nc3ncc4c(=O)n(-c5c(Cl)cccc5Cl)nc(-c5cnn(C)c5)c4n3)cc2)CC1 [Example 87, 6-(2,6-dichlorophenyl)-2-{[4-(4-methylpiperazin-1-yl)phenyl]amino}-8-(1-methyl-1H-pyrazol-4-yl)pyrimido[4,5-d]pyridazin-5(6H)-one], the Ki was 0.1 nM. Cc1ccccc1-n1nc(-c2cccs2)c2nc(Nc3ccc4c(c3)CN(C)CC4)ncc2c1=O [Example 164, 6-(2-methylphenyl)-2-[(2-methyl-1,2,3,4-tetrahydroisoquinolin-7-yl)amino]-8-(2-thienyl)pyrimido[4,5-d]pyridazin-5(6H)-one] was tested, and the Ki was 0.5 nM. With CCc1nn(-c2c(Cl)cccc2Cl)c(=O)c2cnc(Nc3ccc4c(c3)CCN(C)C4(C)C)nc12 [Example 460, 6-(2,6-dichlorophenyl)-8-ethyl-2-[(1,1,2-trimethyl-1,2,3,4-tetrahydroisoquinolin-6-yl)amino]pyrimido[4,5-d]pyridazin-5(6H)-one] the Ki was 0.32 nM. CCc1nn(-c2c(Cl)cccc2Cl)c(=O)c2cnc(Nc3ccc(CN4CCN(C)CC4)cc3)nc12 [Example 465, 6-(2,6-dichlorophenyl)-8-ethyl-2-({4-[(4-methylpiperazin-1-yl)methyl]phenyl}amino)pyrimido[4,5-d]pyridazin-5(6H)-one] showed a Ki of 0.88 nM. In the case of CN1Cc2cc(Nc3ncc4c(=O)n(-c5c(Cl)cccc5Cl)nc(-c5cccc(F)n5)c4n3)ccc2C2(CC2)C1 [Example 227, 6-(2,6-dichlorophenyl)-8-(6-fluoropyridin-2-yl)-2-[(2′-methyl-2′,3′-dihydro-1′H-spiro[cyclopropane-1,4′-isoquinolin]-7′-yl)amino]pyrimido[4,5-d]pyridazin-5(6H)-one], the Ki is reported as less than 1 nM. In the case of CC(=O)N1CCc2ccc(Nc3ncc4c(=O)n(-c5c(Cl)cccc5Cl)nc(C(F)F)c4n3)cc2C1 [Example 477, 2-[(2-acetyl-1,2,3,4-tetrahydroisoquinolin-7-yl)amino]-6-(2,6-dichlorophenyl)-8-(difluoromethyl)pyrimido[4,5-d]pyridazin-5(6H)-one], the Ki is reported as 0.67 nM. Work on CN(C)Cc1ccc(Nc2ncc3c(=O)n(-c4ccccc4Cl)nc(-c4ccccc4)c3n2)cc1 [Example 204, 6-(2-chlorophenyl)-2-({4-[(dimethylamino)methyl]phenyl}amino)-8-phenylpyrimido[4,5-d]pyridazin-5(6H)-one] yielded a Ki of 2 nM. In the case of O=c1c2cnc(Nc3ccc4c(c3)CNCC4)nc2c(-c2ccccn2)nn1-c1c(Cl)cccc1Cl [Example 217, 6-(2,6-dichlorophenyl)-8-(pyridin-2-yl)-2-(1,2,3,4-tetrahydroisoquinolin-7-ylamino)pyrimido[4,5-d]pyridazin-5(6H)-one], the Ki is reported as 0.1 nM. Molecule CN1Cc2cc(Nc3ncc4c(=O)n(-c5c(Cl)cccc5Cl)nc(C(F)F)c4n3)ccc2C1(C)C [Example 485, 6-(2,6-dichlorophenyl)-8-(difluoromethyl)-2-[(1,1,2-trimethyl-2,3-dihydro-1H-isoindol-5-yl)amino]pyrimido[4,5-d]pyridazin-5(6H)-one] has a Ki of 0.15 nM. In the case of CN1CCCC(c2ccc(Nc3ncc4c(=O)n(-c5c(Cl)cccc5Cl)nc(C(F)F)c4n3)cc2)C1 (stereo not drawn) [Example 486, 6-(2,6-dichlorophenyl)-8-(difluoromethyl)-2-{[4-(1-methylpiperidin-3-yl)phenyl]amino}pyrimido[4,5-d]pyridazin-5(6H)-one], the Ki is reported as 0.13 nM. Work on Cc1nn(-c2c(Cl)cccc2Cl)c(=O)c2cnc(Nc3cccc(C(=O)N4CCS(=O)(=O)CC4)c3)nc12 [Example 529, 6-(2,6-dichlorophenyl)-2-({3-[(1,1-dioxidothiomorpholin-4-yl)carbonyl]phenyl}amino)-8-methylpyrimido[4,5-d]pyridazin-5(6H)-one] yielded a Ki of 9.4 nM. In the case of CCc1nn(-c2c(Cl)cccc2Cl)c(=O)c2cnc(Nc3ccc4c(c3)CCNC4(C)C)nc12 [Example 466, 6-(2,6-dichlorophenyl)-2-[(1,1-dimethyl-1,2,3,4-tetrahydroisoquinolin-6-yl)amino]-8-ethylpyrimido[4,5-d]pyridazin-5(6H)-one], the Ki is reported as 0.34 nM. CC(=O)N1Cc2cc(Nc3ncc4c(=O)n(-c5c(Cl)cccc5Cl)nc(C)c4n3)ccc2C2(CC2)C1 [Example 417, 2-[(2′-acetyl-2′,3′-dihydro-1′H-spiro[cyclopropane-1,4′-isoquinolin]-7′-yl)amino]-6-(2,6-dichlorophenyl)-8-methylpyrimido[4,5-d]pyridazin-5(6H)-one] showed a Ki of 0.31 nM. Molecule O=c1c2cnc(Nc3ccc4c(c3)CNCC43CC3)nc2c(-c2ccncc2)nn1-c1c(Cl)cccc1Cl [Example 253, 6-(2,6-dichlorophenyl)-2-(2′,3′-dihydro-1′H-spiro[cyclopropane-1,4′-isoquinolin]-7′-ylamino)-8-(pyridin-4-yl)pyrimido[4,5-d]pyridazin-5(6H)-one] has a Ki of 0.09 nM. In the case of Cc1nn(-c2c(Cl)cccc2Cl)c(=O)c2cnc(Nc3ccc4c(c3)CCN(C)C4(C)C)nc12 [Example 453, 6-(2,6-dichlorophenyl)-8-methyl-2-[(1,1,2-trimethyl-1,2,3,4-tetrahydroisoquinolin-6-yl)amino]pyrimido[4,5-d]pyridazin-5(6H)-one], the Ki is reported as 0.36 nM. For Cc1ccccc1-n1nc(-c2cccs2)c2nc(Nc3ccc(N4CCCC4=O)cc3)ncc2c1=O [Example 128, 6-(2-methylphenyl)-2-{[4-(2-oxopyrrolidin-1-yl)phenyl]amino}-8-(2-thienyl)pyrimido[4,5-d]pyridazin-5(6H)-one], the Ki was 6 nM. With CN1CCN(c2ccc(Nc3ncc4c(=O)n(-c5c(Cl)cccc5Cl)nc(-c5cccc(F)n5)c4n3)cc2)CC1 [Example 243, 6-(2,6-dichlorophenyl)-8-(6-fluoropyridin-2-yl)-2-{[4-(4-methylpiperazin-1-yl)phenyl]amino}pyrimido[4,5-d]pyridazin-5(6H)-one] the Ki was less than 1 nM. For Cc1nn(-c2c(Cl)cccc2Cl)c(=O)c2cnc(Nc3cc4c(cc3F)CNCC4)nc12 [Example 480, 6-(2,6-dichlorophenyl)-2-[(7-fluoro-1,2,3,4-tetrahydroisoquinolin-6-yl)amino]-8-methylpyrimido[4,5-d]pyridazin-5(6H)-one], the Ki was 1.3 nM. Molecule CN1CCN(c2ccc(Nc3ncc4c(=O)n(-c5c(Cl)cccc5Cl)nc(-c5ccccn5)c4n3)cc2)CC1 [Example 103, 6-(2,6-dichlorophenyl)-2-{[4-(4-methylpiperazin-1-yl)phenyl]amino}-8-(pyridin-2-yl)pyrimido[4,5-d]pyridazin-5(6H)-one] has a Ki of 0.2 nM. Work on CN1CCN(c2ccc(Nc3ncc4c(=O)n(-c5ccccc5)nc(-c5ccco5)c4n3)cc2)CC1 [Example 34, 8-(2-furyl)-2-{[4-(4-methylpiperazin-1-yl)phenyl]amino}-6-phenylpyrimido[4,5-d]pyridazin-5(6H)-one] yielded a Ki of 4 nM. In the case of CN1CCN(c2ccc(Nc3ncc4c(=O)n(-c5c(Cl)cccc5Cl)nc(-c5cccc(N(C)C)c5)c4n3)cc2)CC1 [Example 90, 6-(2,6-dichlorophenyl)-8-[3-(dimethylamino)phenyl]-2-{[4-(4-methylpiperazin-1-yl)phenyl]amino}pyrimido[4,5-d]pyridazin-5(6H)-one], the Ki is reported as 0.2 nM. Work on Cc1cccc(Cl)c1-n1nc(C)c2nc(Nc3ccc4c(c3)CN(CCO)CC4)ncc2c1=O [Example 499, 6-(2-chloro-6-methylphenyl)-2-{[2-(2-hydroxyethyl)-1,2,3,4-tetrahydroisoquinolin-7-yl]amino}-8-methylpyrimido[4,5-d]pyridazin-5(6H)-one] yielded a Ki of 0.21 nM. COC(=O)c1cccc(-c2nn(-c3c(Cl)cccc3Cl)c(=O)c3cnc(Nc4ccc(N5CCN(C)CC5)cc4)nc23)c1 [Example 188, methyl 3-[6-(2,6-dichlorophenyl)-2-{[4-(4-methylpiperazin-1-yl)phenyl]amino}-5-oxo-5,6-dihydropyrimido[4,5-d]pyridazin-8-yl]benzoate] gave a Ki of 1 nM.
